Read-outs that look alike come from different tables or passages of the source.
Columns and labels:
[1] = Pharmacokinetic cross-over study in healthy volunteers (oral / subcutaneous); assay type: in vivo, human; conditions: for absorption: after oral and subcutaneous administration
Experimental: Administrations are separated by a wash-out period of 7-14 days. […] Plasma samples are stored at −20° C. until analysis. The primary objective of the study is to evaluate the relative bio-availability of methotrexate following its co-administration with novobiocin. Secondary objectives of the study include the overall tolerability and safety of the co-administration of a therapeutic dose of methotrexate with a non-therapeutic dose of novobiocin for both administration routes overall and in comparison, to administration of methotrexate alone.

[2] = cited from earlier work
[3] = Pharmacokinetics in rats after oral (gavage) or parenteral administration
Experimental: (§9) In vivo study protocol—in accordance with local (Malmo, Sweden) animal ethic license number M388-12: Following acclimatization to the housing conditions for a minimum of 7 days after arrival, male Wistar (Hannover) rats (Taconic, Denmark), average weight 300 g; average age 8-10 weeks, are treated with test items (see table 1); 12-16 h prior to dosing all food except for an amount equivalent to a half day consumption is removed. The test items are administrated using a soft gavage tube (p.o.) or by injecting the test item in the tail vein (i.v). The volume given is 5 mL/kg (p.o.) or 1 mL/kg (i.v.). Before i.v administration rats are anesthetized using isoflurane. The rats are conscious during sample collection and the blood is taken from the sub-lingual vein. Blood samples are collected from each rat over a period of up to 24 h. At each time point two aliquots of 50 μL each is added to a vial containing 150 μL of sterile water. The samples are mixed immediately and stored at −18° C. until preparation for bioanalysis is commenced. All formulations are prepared on the same day that dosing takes place. The body weight of the rat is recorded before dosing. The weight of the syringe is recorded before and after administration to allow calculation of the actual amount of test sample delivered. The actual doses are used during the evaluation of the data.
(§10) Samples and standards are injected by a HTC PAL from CTC analytics into an LC system from Shimadzu consisting of a high-pressure gradient system of two LC-10 AD pumps controlled by a SCL-10A controller from Shimadzu. The samples are separated using reverse-phase chromatography with gradient elution at a flow rate of 0.8 mL/min. Mobile phases are A:94.9/5/0.1 water/acetonitrile/formic acid and B:5/94.9/0.1 water/acetonitrile/formic acid. Gradient starts at 0% B and increases linearly to 100% B in 4 minutes, 100% B is kept for 0.5 minutes and then the system returns to 0% B in 0.1 minutes. The system is equilibrated for 1.4 minutes until the total run time of 6 minutes. The eluent is analysed by a Quattro Ultima from Micromass equipped with an electrospray ion source. Data are collected, and calibrations are calculated by MassLynx 4.0 software. […] The eluent is ionized by negative ion electrospray.
(§11) The diluted blood sample (50 μL blood, 150 μL water) is thawed and mixed with 400 μL of acetonitrile, to precipitate the protein. The sample is centrifuged at 5000 g for 5 minutes and 100 μL of the supernatant is transferred to a 300 μL glass vial and 100 μL of water is added to reduce the acetonitrile concentration.
(§12) The concentration of the standard curve is in the range from 5 nM to 15625 nM. Samples with analyte concentrations above the upper limit of quantification are diluted with matrix to reach within the assay range. A non-compartmental analysis (NCA) is performed using the Phoenix WinNonLin analysis tool.

[4] = therapeutically effective treatment dose level; cited from earlier work
neutrophils [5] = conditions: 4 months after reaching a therapeutic dose of more than 20 mg/week; cited from earlier work
RA patients = conditions: 15 mg/wk, cited from earlier work
MMP1 = conditions: cited from earlier work; for IL-1 induced increase in MMP1 expression: Nose M. et al. (1997)
[6] = test system: pristane-induced arthritis; assay: Pristane-induced arthritis (PIA) rat model; assay type: in vivo
Experimental: The animals are acclimatized for approximately one week before initiation of experiment. All rats are weighed day 0, the day of disease induction, for determination of mean weight of the rats included in the experiment. Arthritis is induced by subcutaneous (s.c.) administration of 200 μl pristane on Day 0. The rats are anesthetized by inhaling a mixture of Isoba vet (3.5%) and oxygen. The root of the tail is cleaned with 70% ethanol and the oil is injected approximately 0.5 cm from the root of the tail. A slight pressure is put on the injection site for 5 seconds after injection to prevent leakage of the oil. Test compounds are administered either i.v. or p.o. (by gavage). Disease is evaluated three times per week from disease onset using a macroscopic scoring system of the four limbs ranging from 0 to 15 (1 point for each swollen or red toe, 1 point for a swollen or red mid foot digit or knuckle, 5 points for a swollen ankle) resulting in a maximum total score of 60 for each rat. The disease scoring is done in a double-blind fashion, i.e. the scorer is unaware of the treatment received by the animal. […]

[7] = cited from earlier work; remark: listed apart in the source
[8] = adults; cited from earlier work
[9] = rodents; cited from earlier work
neutrophils [10] = assay: Induction of neutrophil apoptosis (in vitro/ex vivo model of arthritis); assay type: cell-based, rat
Excerpt: (§1) Apoptosis, in contrast to necrosis, is the demise of a cell through a series of controlled sequential events, resulting in an increase of anti-inflammatory mediators instead of invoking an inflammatory response, because the contents of the cell are removed by phagocytosis and not released to the direct environment. Apoptosis involves the activation of caspases, including caspase 3. Aberration in expression and/or function of the regulators of cell death through apoptosis is thought to result in pathological conditions, including autoimmune diseases and cancer. Although apoptotic cells are uncommonly observed in vivo in RA tissues, in vitro inflammatory cells from RA tissues, like synoviocytes, T-cells and macrophages, are highly susceptible to apoptosis induced through the FAS-TNF-receptor pathway. The absence of apoptotic cells in vivo may be explained by the high levels of nitric oxide in RA tissues, which inhibits caspase 3 and thus cell apoptosis.
(§2) Novobiocin is a topoisomerase II inhibitor and at therapeutically relevant concentration levels, is expected to counteract CPPD-triggered prolonged survival of neutrophils. Such a pharmacodynamic effect of Novobiocin may be quantified either through activity (levels) of caspase 3, an apoptotic cleavage enzyme, or cytoplasmic histone-associated-DNA fragmentation assessment, using commercially available kits.
(§3) In the latter model, the effect on neutrophil apoptosis can be either studied directly, or indirectly, exposing the cells in vitro to a challenge that prolongs their survival (e.g. CPPD crystals).
(§4) CPPD (Ca2P2O7.2H2O; triclinic form) crystals can be obtained using well described methods (Burt H M et al. 1989; Gras P. et al. 2013). Plasma protein coating of the crystals is achieved through incubation of the crystals in 50% plasma (Tudan C et al. 2003). The CPPD crystals are used in experiments with neutrophils from healthy control individuals/animals to mimic arthritic disease.
(§5) Neutrophils are separated from fresh human (healthy control/patient) or rat (healthy control; disease model) blood using standard methods and suspended in buffer at a concentration of 1×10^6 cells/ml. The cells are incubated at 37° C. with occasional tumbling.
(§6) Stock solutions of TNFalpha, Methotrexate and Novobiocin are prepared in DMSO, keeping the DMSO concentrations in the cell suspensions below 0.1% during the experiment. The apoptosis rate following the administration of vehicle without active agent (negative control) represents the baseline rate of apoptosis (no effect level), while the apoptosis rate following the administration of TNFalpha (positive control) represents the maximum rate of apoptosis (100% effect level).

plasma albumin = molecular target: T1, plasma albumin (Homo sapiens, UniProt P02768); conditions: in men; cited from earlier work
T1 construct: host or cells: human plasma

neutrophils [11] = assay: Induction of neutrophil apoptosis (in vitro/ex vivo model of arthritis); assay type: cell-based, human
Excerpt: as §1, §2, §3, §4, §5, §6

MMP1 (collagenase) = assay: IL-1 induced mRNA upregulation of MMP1 in primary chondrocyte culture; assay type: cell-based, calf; conditions: concentrations <100 uM
Experimental: (§7) Primary chondrocyte culture was freshly isolated from calf cartilage. The cells were plated (at 2.5×10^6 per mL) in 100×20 mm culture dishes and incubated in Ham's F12 medium containing 5% fetal bovine serum (FBS) overnight at 37° C. The cells were starved with serum-free medium overnight. The cells were pretreated with MTX, NOV or a combination of MTX with 1, 2, 10 or 20 eq of NOV for 6 hours. Then IL-1 (20 ng/mL) was added to each plate and the plates were incubated for an additional 18 h.
(§8) Total RNA was isolated by the acidified guanidine isothiocyanate method and subjected to electrophoresis on a denatured gel. Denatured RNA samples were analyzed by gel electrophoresis in a 1% denaturing gel, transferred to a nylon membrane and hybridized respectively with the ^32P-cDNA probes for MMP1, MMP3 and proteoglycan and analyzed.

[12] = rat, in vivo
Experimental: as §9, §10, §11, §12

MMP3 (stromelysin1) = assay: IL-1 induced mRNA upregulation of MMP3 in primary chondrocyte culture; assay type: cell-based; conditions: calf chondrocytes, IL-1 20 ng/mL; concentrations <100 uM
Experimental: as §7, §8

MMP3 = conditions: cited from earlier work
[13] = male, Wistar (Hannover), rat, whole blood, po, 2 mg/kg
[14] = male, Wistar (Hannover), rat, whole blood, ip, 5.5 mg/kg
[15] = male, Wistar (Hannover), rat, whole blood, po, 55 mg/kg
[16] = neutrophils from healthy rat, concentrations <60 uM
[17] = neutrophils from healthy subjects, concentrations <60 uM
[18] = at 1×10^−7 M, Jackson J K et al. (2008)

T1 sequence (P02768 25-609): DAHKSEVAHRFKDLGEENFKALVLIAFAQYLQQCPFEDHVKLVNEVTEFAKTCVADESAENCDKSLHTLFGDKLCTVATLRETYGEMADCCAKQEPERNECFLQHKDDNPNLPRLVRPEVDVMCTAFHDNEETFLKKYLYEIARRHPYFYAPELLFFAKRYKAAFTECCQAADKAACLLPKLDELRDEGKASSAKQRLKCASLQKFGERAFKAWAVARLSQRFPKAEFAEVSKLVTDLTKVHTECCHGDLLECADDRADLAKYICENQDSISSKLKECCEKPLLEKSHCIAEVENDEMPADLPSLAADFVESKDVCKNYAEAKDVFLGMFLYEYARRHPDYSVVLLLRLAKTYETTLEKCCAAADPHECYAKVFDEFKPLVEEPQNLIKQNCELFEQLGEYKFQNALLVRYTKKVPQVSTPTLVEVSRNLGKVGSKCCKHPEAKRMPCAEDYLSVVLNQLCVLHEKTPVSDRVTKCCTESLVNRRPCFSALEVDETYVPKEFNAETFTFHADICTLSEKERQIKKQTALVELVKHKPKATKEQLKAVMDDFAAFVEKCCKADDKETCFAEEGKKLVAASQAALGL

CN(Cc1cnc2nc(N)nc(N)c2n1)c1ccc(C(=O)N[C@@H](CCC(=O)O)C(=O)O)cc1 [methotrexate, N-[4-[[(2,4-diamino-6-pteridinyl)methyl]methylamino]benzoyl]-L-glutamic acid]
maximum concentrations and total plasma concentrations, sub cutaneous versus oral administration ([1]; 15 mg methotrexate alone): higher | absorption ([1]; healthy volunteers): rapidly absorbed | time to maximum plasma concentrations, sub cutaneous route versus oral route ([1]; healthy volunteers): reached faster | time within which non-polyglutamated methotrexate is excreted in the urine after administration ([2]; in vivo): ≤ 12 h | systemic bioavailability ([2]; man, oral dose): approximately 73% | bioavailability ([2]; subcutaneous (sc) administration): approx. 95% | AUC(0-inf) [3, 13]: 0.923 µM·h | AUC(0-t) [3, 13]: 0.759 µM·h | Cmax [3, 13]: 277 nM | patient population in which treatment needs to be terminated due to intolerability [4]: about 30% | neutrophil apoptosis in RA patients (neutrophils [5]): restoration of neutrophil apoptosis to healthy control levels | treatment success, RA patients (RA patients; oral application route): 24% | treatment success, RA patients (RA patients; sc application route): 34% | IL-1 induced increase in MMP1 expression (MMP1): suppressed | inflammatory effects of pristane ([6]; 0.1 mg/kg every third day from day 7 (i.v.)): completely ameliorated

CO[C@@H]1[C@@H](OC(N)=O)[C@@H](O)[C@H](Oc2ccc3c(O)c(NC(=O)c4ccc(O)c(CC=C(C)C)c4)c(=O)oc3c2C)OC1(C)C [novobiocin, 4-hydroxy-3-[4-hydroxy-3-(3-mehtylbut-2-enyl)benzamido]-8-methylcoumarin-7-yl 3-O-carbamoyl-5,5-di-C-methyl-alpha-L-lyxofuranoside]
dose excreted unaltered in the urine ([7]; Wright W. W. et al., 1956): About 3% | oral dose excreted in the faeces ([7]; hepatic/biliary excretion): about 30% | maximum tolerated dose (MTD) [8]: 4 g/day | absorption ([1]; healthy volunteers): rapidly absorbed | plasma levels versus levels at which any pharmacodynamic effects can be observed in non-clinical models of disease ([1]; healthy volunteers): remain well below | time to maximum plasma concentrations, sub cutaneous route versus oral route ([1]; healthy volunteers): reached faster | AUC(0-inf) [3, 14]: 25.5 µg·h/mL | Cmax [3, 14]: 9600 ng/mL | Tmax [3, 14]: 0.9 h | AUC(0-inf) [3, 15]: 110 µg·h/mL | AUC(0-t) [3, 15]: 110 µg·h/mL | Cmax [3, 15]: 23300 ng/mL | Tmax [3, 15]: 1.8 h | Cmax ([3]; oral administration (gavage; 55 mg/kg)): 23300 ng/mL | oral availability [9]: about 30% | pharmacodynamic effects on neutrophil apoptosis (neutrophils [10]; neutrophils from disease model animals (PIA rat), concentrations <60 uM): No pharmacodynamic effects | effect of NOV on CPPD-induced prolonged survival (neutrophils [10]; neutrophils from healthy controls (rat), control = base line, TNFalpha is 100% effect, concentrations <50 uM): No pharmacodynamic effects | pharmacodynamic effects on CPPD-induced prolonged survival (neutrophils [10]; [16]): No pharmacodynamic effects | pharmacodynamic effects on neutrophil apoptosis (neutrophils [10]; [16]): No pharmacodynamic effects | bound to plasma albumin (plasma albumin): 99.2% | effect of NOV on CPPD-induced prolonged survival (neutrophils [11]; neutrophils from healthy controls (human), control = base line, TNFalpha is 100% effect, concentrations <50 uM): No pharmacodynamic effects | pharmacodynamic effects on CPPD-induced prolonged survival (neutrophils [11]; [17]): No pharmacodynamic effects | pharmacodynamic effects on neutrophil apoptosis (neutrophils [11]; [17]): No pharmacodynamic effects | pharmacodynamic effects on neutrophil apoptosis (neutrophils [11]; neutrophils from patients with rheumatoid arthritis, concentrations <60 uM): No pharmacodynamic effects | pharmacodynamic effects on the IL-1 induced mRNA upregulation of MMP1 (MMP1 (collagenase); calf chondrocytes, IL-1 20 ng/mL): No pharmacodynamic effects | additional pharmacodynamic effects on the inhibition of the IL-1 induced mRNA upregulation of MMP1 by MTX (MMP1 (collagenase); novobiocin added to MTX): No additional pharmacodynamic effects | linearity of pharmacokinetics [12]: linear | therapeutic effect on the pristane-induced arthritis ([6]; daily per oral administration of up to 80 mg/kg from day 11 to 21 (after onset of disease)): no therapeutic effect | pharmacodynamic effects on the IL-1 induced mRNA upregulation of MMP3 (MMP3 (stromelysin1)): No pharmacodynamic effects

O=C(O)c1cc(/N=N/c2ccc(S(=O)(=O)Nc3ccccn3)cc2)ccc1O [Sulfasalazin]
IL-1 induced increase in MMP3 expression (MMP3; Nose M. et al. (1997)): suppressed | IL-1 induced increase in MMP1 expression (MMP1): suppressed

CC[C@@]1(O)C(=O)OCc2c1cc1n(c2=O)Cc2cc3ccccc3nc2-1 [Camptothecin]
IL-1 induced increase in MMP3 mRNA expression (MMP3; [18]): almost completely inhibited | IL-1 induced increase in MMP1 mRNA expression (MMP1; [18]): almost completely inhibited
